How the values were obtained:
[1] = test system: Cas9 expressing U-251 and LN-229; test: comet assay (genomic fragmentation); format: cell-based, human; conditions: 24 hours post-transduction, compared to sgNT-1/2/3
Description: To look at the genomic effects of repetitive loci targeting, DNA from lysed targeted cells was separated on agarose-coated slides.

[2] = test system: Cas9 expressing U-251, LN-229, T98G, and LN-18 cells; test: colony formation assay (crystal violet); format: cell-based, human; conditions: all four tested GBM cell lines, two weeks
Protocol: Because recurrent tumors develop from cells that escape treatment, either by avoiding exposure, tolerating the effects, or developing resistance, colony formation assays were performed to evaluate the robustness of CRISPR-Cas genome shredding in eliminating target cells.
TMZ-resistant LN-229 cell lines were isolated to determine which types of treatments could overcome such resistance. Cas9 expressing U-251, LN-229, T98G, and LN-18 cells were stably transduced with lentiviral vectors expressing sgNT-1/2 or sgCIDE-1/2/3/6/8/10 (Table 2), and seeded at 100, 1,000, and 10,000 cells per 6-well plate. Control cells were treated with DMSO or TMZ (50 μM).

[3] = test system: U-251, LN-229, T98G and LN-18 glioblastoma cells; test: luminescence-based quantification of cell viability; design: species or system human; conditions: over five days
Protocol: To investigate the speed of cell elimination by either method, Cas9 expressing TMZ-sensitive U-251 and LN-229, and TMZ-resistant T98G and LN-18, glioblastoma cells were treated with TMZ or these cells were transduced with lentiviral vectors expressing sgCIDEs.

[4] = test system: Cas9 expressing U-251, LN-229, T98G, and LN-18 glioblastoma cells; test: cell cycle analysis (PI staining, flow cytometry); format: cell-based, human; conditions: one to five days; TMZ 50 μM or 100 μM
Protocol: The effects of genome shredding on cell cycle progression were then assessed. Cells were treated with TMZ or sgCIDEs for one to five days and then stained with PI after fixation for analysis by flow cytometry. […] Increases of the Sub-G1 population was more prominent in TP53-mutant U-251 cells compared LN-229 with wild-type TP53, consistent with previous observations that TP53 status affects resolution of the G2/M arrest.

[5] = test system: HEK293T and HAP1 cells; test: mammalian competitive proliferation assay, cells expressing Cas9 WT; format: cell-based, human; conditions: WT Cas9, eight-day assay period
Description: (§1) For assessment of CRISPR-Cas programmed cell depletion using guide RNAs targeting an essential gene (RPA1) or sgCIDEs targeting hundreds of thousands of loci within the genome, cells were stably transduced with a lentiviral vector expressing Cas9-wt (pCF226) or ProCas9Flavi (pCF730) and selected on puromycin. Subsequently, these cell lines were further stably transduced with vectors expressing various mCherry-tagged sgRNAs and analyzed as follows: 1) After mixing sgRNA expressing populations with parental cells, the fraction of mCherry-positive cells was quantified over time. Different sgRNAs targeting a neutral gene (sgOR2B6), an essential gene (sgRPA1), >100,000 genomic loci (sgCIDE) and a non-targeting control (sgNT) were compared. 2) Alternatively, the cell lines were partially transduced with lentiviral vectors expressing a GFP-tagged dTEV (pCF736) or WNV (pCF738) protease, and cell depletion quantified by flow cytometry. Depletion of protease-expressing (GFP+) cells was quantified among the sgRNA-positive (mCherry+) population.
The effect of guide RNA expression on cell viability was assessed using a competitive proliferation assay in which cells expressing a specific sgRNA were mixed with parental cells expressing only Cas9 WT, and the mCherry-positive population was followed over time. […] Guide RNAs targeting the essential RPA1 gene depleted over the eight-day assay period.

[6] = test system: HEK293T and HAP1 cells expressing ProCas9Flavi; test: competitive proliferation assay, cells expressing ProCas9Flavi; format: cell-based, human; conditions: for cell depletion with protease: ProCas9Flavi cells, WNV protease vs dTEV; for cell depletion in the absence of a stimulus: genomically integrated ProCas9Flavi
Description: as §1
Cas-induced death by editing or ‘CIDE, as an output constrains the performance of ProCas9. The system remains off to minimize genomic damage yet is vigilant to respond to a stimulus. To develop this protease-induced altruistic defense platform, stable expression of the best CIDE guide RNAs (sgCIDE-2, sgCIDE-4) was assessed in conjunction with a genomically integrated ProCas9Flavi cassette to determine cell viability in the absence of a stimulus (FIG. 5B). […] Induction of this stably integrated altruistic defense system was then tested by Flavivirus proteases.

Row | Substance | comet tails (genomic fragmentation) [1] | effect on colony count [2] | lethality (cell viability) [3] | cell cycle profile [4] | depletion of the mCherry-positive population [5] | cell depletion with protease [6] | cell depletion in the absence of a stimulus [6]
1 | sgCIDE-1: guide RNA TGTAATCCCAGCACTTTGGG (SEQ ID NO:1), targets repetitive genomic sites (chemistry not given here) | very long tails | over three log-scales reduction in colony count | viral titer-dependent lethality in all four tested glioblastoma cell lines | rapid increase of the Sub-G1 population starting at day one post-transduction | rapid elimination of the mCherry-positive population |  | 
2 | sgCIDE-2: guide RNA TCCCAAAGTGCTGGGATTAC (SEQ ID NO:2) (chemistry not given here) | very long tails | over three log-scales reduction in colony count | viral titer-dependent lethality in all four tested glioblastoma cell lines | rapid increase of the Sub-G1 population starting at day one post-transduction | rapid elimination of the mCherry-positive population | specific cell depletion | only minimal amounts of cell depletion
3 | sgCIDE-3: guide RNA GCCTGTAATCCCAGCACTTT (SEQ ID NO:3) (chemistry not fully specified) | very long tails | over three log-scales reduction in colony count | viral titer-dependent lethality in all four tested glioblastoma cell lines | rapid increase of the Sub-G1 population starting at day one post-transduction |  |  | 
4 | sgCIDE-4: guide RNA CGCCTGTAATCCCAGCACTT (SEQ ID NO:4) (chemistry not given here) |  |  |  |  | rapid elimination of the mCherry-positive population | specific cell depletion | only minimal amounts of cell depletion
5 | sgCIDE-5: guide RNA CCTCGGCCTCCCAAAGTGCT (SEQ ID NO:5) (chemistry not given here) |  |  |  |  | rapid elimination of the mCherry-positive population |  | 
6 | sgCIDE-6: guide RNA CCCAGCACTTTGGGAGGCCG (SEQ ID NO:6) (chemistry not fully specified) |  | over three log-scales reduction in colony count | viral titer-dependent lethality in all four tested glioblastoma cell lines | rapid increase of the Sub-G1 population starting at day one post-transduction |  |  | 
7 | sgCIDE-8: guide RNA CTGTAATCCCAGCACTTTGG (SEQ ID NO:8) (chemistry not fully specified) |  | over three log-scales reduction in colony count | viral titer-dependent lethality in all four tested glioblastoma cell lines | rapid increase of the Sub-G1 population starting at day one post-transduction |  |  | 
8 | sgCIDE-10: guide RNA TTCTCCTGCCTCAGCCTCCC (SEQ ID NO:10) (chemistry not fully specified) |  | over three log-scales reduction in colony count | viral titer-dependent lethality in all four tested glioblastoma cell lines | rapid increase of the Sub-G1 population starting at day one post-transduction |  |  | 
9 | sgNT-1: non-targeting guide RNA GGCCAAACGTGCCCTGACGG (SEQ ID NO:29) (chemistry not fully specified) [reference compound] |  | little effect on colony formation | no effect | comparable normal cell cycle profiles |  |  | 
10 | sgNT-2: non-targeting guide RNA GCGATGGGGGGGTGGGTAGC (SEQ ID NO:30) (chemistry not fully specified) [reference compound] |  | little effect on colony formation | no effect | comparable normal cell cycle profiles |  |  | 
11 | sgOR2B6-1: guide RNA to olfactory receptor gene, CATTATTCTAGTGTCACGCC (SEQ ID NO:32) (chemistry not given here) [reference compound] |  |  |  | comparable normal cell cycle profiles | no depletion |  | 
12 | sgOR2B6-2: guide RNA to olfactory receptor gene, GGGTATGAAGTTTGGTGTCC (SEQ ID NO:33) (chemistry not given here) [reference compound] |  |  |  | comparable normal cell cycle profiles | no depletion |  | 
13 | sgRPA1-2: guide RNA to essential gene RPA1, TACCTGGAGCAACTCCCGAG (SEQ ID NO:36) [reference compound] |  |  |  | accumulation in S-phase starting at day three, accompanied by increase of the Sub-G1 population |  |  | 
14 | sgRPA1-3: guide RNA to essential gene RPA1, ACTTTCGTCAACCAGTTCTA (SEQ ID NO:37) [reference compound] |  |  |  | accumulation in S-phase starting at day three, accompanied by increase of the Sub-G1 population |  |  | 

— patent US20230043813A1, “METHODS FOR TARGETED CELL DEPLETION” (The Regents of the University of California, priority 2019, published 2023)
